# Test results taken from US9249145B2, “Heterocyclic derivatives of pyrazol-4-yl-pyrrolo[2,3-d]pyrimidines as janus kinase inhibitors” (Incyte Holdings Corporation, priority 2009, dated 2016).
# Counter-ions that a name gives are not always drawn. Like-named read-outs stand apart in the source and are kept apart here.
# Columns and labels:
# [1] = target: T1, human JAK1 (a.a. 837-1142) (Homo sapiens, UniProt P23458); assay: In vitro JAK kinase assay (HTRF, phosphorylation of biotinylated peptide), JAK1; format: biochemical
# T1 construct: The catalytic domains of human JAK1 (a.a. 837-1142); His tag (N); made in house; host or cells: insect cells (baculovirus)
# T1 sequence (P23458 849-1154): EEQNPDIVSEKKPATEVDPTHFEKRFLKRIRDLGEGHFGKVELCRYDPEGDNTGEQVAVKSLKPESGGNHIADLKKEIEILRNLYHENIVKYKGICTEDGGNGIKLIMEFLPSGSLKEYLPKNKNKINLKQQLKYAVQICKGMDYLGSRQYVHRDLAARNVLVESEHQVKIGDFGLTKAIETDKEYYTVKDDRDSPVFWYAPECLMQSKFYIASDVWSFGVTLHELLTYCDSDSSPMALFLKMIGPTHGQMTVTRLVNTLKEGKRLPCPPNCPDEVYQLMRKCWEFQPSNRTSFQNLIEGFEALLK
# Method in brief: (§1)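 IC50 from HTRF detection (Eu-Py20 antibody, SA-APC, 40 min) after EDTA quench. Reactions ran 1 h at room temperature with 500 nM biotinylated peptide in Tris pH 7.8 buffer with NaCl, DTT, BSA; ATP 90 μM for JAK1, 30 μM for JAK2 (Km), or 1 mM. Enzymes: His-tagged catalytic domains from insect cells.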
# Jak2 (a.a. 828-1132) = target: T2, Jak2 (a.a. 828-1132) (Homo sapiens, UniProt O60674); assay: In vitro JAK kinase assay (HTRF, phosphorylation of biotinylated peptide), JAK2; format: biochemical
# T2 construct: Jak2 (a.a. 828-1132); His tag (N); made in house; host or cells: insect cells (baculovirus)
# T2 sequence (O60674 828-1132): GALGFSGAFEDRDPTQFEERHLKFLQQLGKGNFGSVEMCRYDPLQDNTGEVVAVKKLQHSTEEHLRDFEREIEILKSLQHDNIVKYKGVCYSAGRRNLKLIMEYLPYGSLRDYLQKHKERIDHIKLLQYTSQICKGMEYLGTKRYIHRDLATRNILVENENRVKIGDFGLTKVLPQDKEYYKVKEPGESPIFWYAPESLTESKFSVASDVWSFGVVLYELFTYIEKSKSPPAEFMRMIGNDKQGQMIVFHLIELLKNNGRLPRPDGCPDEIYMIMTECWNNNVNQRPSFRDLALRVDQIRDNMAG
# Method in brief: as §1
# [2] = 1 mM ATP, Examples 92-162, read-out: JAK1 IC50 (nM) @ 1 mM ATP
# [3] = 1 mM ATP, Examples 92-162, read-out: JAK2 IC50 (nM) @ 1 mM ATP
# [4] = 1 mM ATP, Examples 12-91, read-out: JAK1 IC50 (nM) @ 1 mM ATP
# [5] = 1 mM ATP, Examples 12-91, read-out: JAK2 IC50 (nM) @ 1 mM ATP
Structure (SMILES),"IC50 [1, 2]",IC50 (Jak2 (a.a. 828-1132); [3]),"IC50 [1, 4]",IC50 (Jak2 (a.a. 828-1132); [5]),also measured
"Cc1c(Nc2cc(F)ccc2F)ncnc1N1CCC(C(CC#N)n2cc(-c3ncnc4[nH]ccc34)cn2)CC1 (stereo not shown) [Example 149, 3-(4-(7H-pyrrolo[2,3-d]pyrimidin-4-yl)-1H-pyrazol-1-yl)-3-(1-(6-(2,5-difluorophenylamino)-5-methylpyrimidin-4-yl)piperidin-4-yl)propanenitrile]",< 20 nM,> 100 nM,,,
"N#CCC(CN1CCCN(C(=O)c2ccc(N)cc2F)CC1)n1cc(-c2ncnc3[nH]ccc23)cn1 (stereo not shown) [Example 104, 4-[4-(4-amino-2-fluorobenzoyl)-1,4-diazepan-1-yl]-3-[4-(7H-pyrrolo[2,3-d]pyrimidin-4-yl)-1H-pyrazol-1-yl]butanenitrile]",20 to 50 nM,> 100 nM,,,
"N#CCC(CN1CCN(C(=O)c2ncc(C(F)(F)F)cc2F)CC1)n1cc(-c2ncnc3[nH]ccc23)cn1 (stereo not shown) [Example 19, 4-(4-{[3-fluoro-5-(trifluoromethyl)pyridin-2-yl]carbonyl}piperazin-1-yl)-3-[4-(7H-pyrrolo[2,3-d]pyrimidin-4-yl)-1H-pyrazol-1-yl]butanenitrile]",,,10 to 50 nM,> 100 nM,
"CS(=O)(=O)N1CCN(CC(CC#N)n2cc(-c3ncnc4[nH]ccc34)cn2)CC1 (stereo not shown) [Example 1, 4-[4-(methylsulfonyl)piperazin-1-yl]-3-[4-(7H-pyrrolo[2,3-d]pyrimidin-4-yl)-1H-pyrazol-1-yl]butanenitrile]",,,,,"IC50 ([1]; 1 mM ATP, Examples 1-11, read-out: IC50 (nM) @ 1 mM ATP JAK1): < 10 nM; IC50 ([1]; Km ATP (90 μM for Jak1), Examples 1-11, read-out: IC50 (nM) @ Km ATP JAK1): < 10 nM; IC50 (Jak2 (a.a. 828-1132); 1 mM ATP, Examples 1-11, read-out: IC50 (nM) @ 1 mM ATP JAK2): 10 to 20 nM; IC50 (Jak2 (a.a. 828-1132); Km ATP (30 μM for Jak2), Examples 1-11, read-out: IC50 (nM) @ Km ATP JAK2): < 10 nM"
"CC(CN1CCN(S(=O)(=O)c2ccc(Cl)s2)CC1)n1cc(-c2ncnc3[nH]ccc23)cn1 (stereo not shown) [Example 93, 4-[1-(2-{4-[(5-chloro-2-thienyl)sulfonyl]piperazin-1-yl}-1-methylethyl)-1H-pyrazol-4-yl]-7H-pyrrolo[2,3-d]pyrimidine]",20 to 50 nM,> 100 nM,,,
"C[C@@H]1CN(CC(CC#N)n2cc(-c3ncnc4[nH]ccc34)cn2)CCN1C(=O)c1ccc(C#N)cc1F (mixture of isomers) [Example 161, 4-[((2R)-4-{3-cyano-2-[4-(7H-pyrrolo[2,3-d]pyrimidin-4-yl)-1H-pyrazol-1-yl]propyl}-2-methylpiperazin-1-yl)carbonyl]-3-fluorobenzonitrile]",50 to 100 nM,> 100 nM,,,
"N#CCC(CN1CCN(C(=O)c2ccc(C#N)cc2F)C(CO)C1)n1cc(-c2ncnc3[nH]ccc23)cn1 (mixture of isomers) [Example 160, 4-{[4-{3-cyano-2-[4-(7H-pyrrolo[2,3-d]pyrimidin-4-yl)-1H-pyrazol-1-yl]propyl}-2-(hydroxymethyl)piperazin-1-yl]carbonyl}-3-fluorobenzonitrile]",20 to 50 nM,> 100 nM,,,
"N#CCC(CN1CCN(S(=O)(=O)c2ccccc2C(F)(F)F)CC1)n1cc(-c2ncnc3[nH]ccc23)cn1 (stereo not shown) [Example 66, 3-(4-(7H-pyrrolo[2,3-d]pyrimidin-4-yl)-1H-pyrazol-1-yl)-4-(4-(2-(trifluoromethyl)phenylsulfonyl)piperazin-1-yl)butanenitrile]",,,< 10 nM,< 10 nM,
"Cc1c(Nc2cccc(F)c2F)ncnc1N1CCC(C(CC#N)n2cc(-c3ncnc4[nH]ccc34)cn2)CC1 (stereo not shown) [Example 153, 3-(4-(7H-pyrrolo[2,3-d]pyrimidin-4-yl)-1H-pyrazol-1-yl)-3-(1-(6-(2,3-difluorophenylamino)-5-methylpyrimidin-4-yl)piperidin-4-yl)propanenitrile]",20 to 50 nM,> 100 nM,,,
"N#CCC(C1CCN(c2cc(Oc3cccc(F)c3)ncn2)CC1)n1cc(-c2ncnc3[nH]ccc23)cn1 (stereo not shown) [Example 152, 3-(4-(7H-pyrrolo[2,3-d]pyrimidin-4-yl)-1H-pyrazol-1-yl)-3-(1-(6-(3-fluorophenoxy)pyrimidin-4-yl)piperidin-4-yl)propanenitrile]",20 to 50 nM,< 20 nM,,,
"C[C@@H]1CN(C(=O)c2ccc(C#N)cc2F)CCN1CC(CC#N)n1cc(-c2ncnc3[nH]ccc23)cn1 (single isomer, unassigned) [24, R-2]",,,> 100 nM,> 100 nM,
"N#CCC(CN1CCCN(C(=O)c2ccc(Cl)cc2)CC1)n1cc(-c2ncnc3[nH]ccc23)cn1 (stereo not shown) [Example 107, 4-[4-(4-chlorobenzoyl)-1,4-diazepan-1-yl]-3-[4-(7H-pyrrolo[2,3-d]pyrimidin-4-yl)-1H-pyrazol-1-yl]butanenitrile]",20 to 50 nM,> 100 nM,,,
"N#CCC(CN1CCN(C(=O)c2cc(C(F)(F)F)ccc2F)CC1)n1cc(-c2ncnc3[nH]ccc23)cn1 (stereo not shown) [Example 32, 3-(4-(7H-pyrrolo[2,3-d]pyrimidin-4-yl)-1H-pyrazol-1-yl)-4-(4-(2-fluoro-5-(trifluoromethyl)benzoyl)piperazin-1-yl)butanenitrile]",,,< 10 nM,< 10 nM,
"COc1cscc1C(=O)N1CCN(CC(CC#N)n2cc(-c3ncnc4[nH]ccc34)cn2)CC1 (stereo not shown) [Example 52, 3-(4-(7H-pyrrolo[2,3-d]pyrimidin-4-yl)-1H-pyrazol-1-yl)-4-(4-(4-methoxythiophene-3-carbonyl)piperazin-1-yl)butanenitrile]",,,10 to 50 nM,50 to 100 nM,
"N#CCC(CN1CCN(C(=O)c2cccs2)CC1)n1cc(-c2ncnc3[nH]ccc23)cn1 (stereo not shown) [Example 42, 3-(4-(7H-pyrrolo[2,3-d]pyrimidin-4-yl)-1H-pyrazol-1-yl)-4-(4-(thiophene-2-carbonyl)piperazin-1-yl)butanenitrile]",,,< 10 nM,10 to 50 nM,
"Cc1c(Nc2ccccc2)ncnc1N1CCC(C(CC#N)n2cc(-c3ncnc4[nH]ccc34)cn2)CC1 (stereo not shown) [Example 146, 3-[1-(6-anilino-5-methylpyrimidin-4-yl)piperidin-4-yl]-3-[4-(7H-pyrrolo[2,3-d]pyrimidin-4-yl)-1H-pyrazol-1-yl]propanenitrile]",20 to 50 nM,> 100 nM,,,
"N#CCC(CN1CCN(C(=O)c2ccc(F)cc2Cl)CC1)n1cc(-c2ncnc3[nH]ccc23)cn1 (stereo not shown) [Example 39, 3-(4-(7H-pyrrolo[2,3-d]pyrimidin-4-yl)-1H-pyrazol-1-yl)-4-(4-(2-chloro-4-fluorobenzoyl)piperazin-1-yl)butanenitrile]",,,< 10 nM,10 to 50 nM,
"N#CCC(CN1CCN(C(=O)Nc2ccccc2OC(F)F)CC1)n1cc(-c2ncnc3[nH]ccc23)cn1 (stereo not shown) [Example 74, 4-(2-(4-(7H-pyrrolo[2,3-d]pyrimidin-4-yl)-1H-pyrazol-1-yl)-3-cyanopropyl)-N-(2-(difluoromethoxy)phenyl)piperazine-1-carboxamide]",,,10 to 50 nM,50 to 100 nM,
"CCC(CN1CCN(S(=O)(=O)c2sccc2Cl)CC1)n1cc(-c2ncnc3[nH]ccc23)cn1 (stereo not shown) [Example 135, 4-(1-(1-(4-(3-chlorothiophen-2-ylsulfonyl)piperazin-1-yl)butan-2-yl)-1H-pyrazol-4-yl)-7H-pyrrolo[2,3-d]pyrimidine]",< 20 nM,20 to 50 nM,,,
"COCC1CN(C(=O)c2ccc(C#N)cc2F)CCN1CC(CC#N)n1cc(-c2ncnc3[nH]ccc23)cn1 (single isomer, unassigned) [Example 157—peak 2, 4-{[4-{3-cyano-2-[4-(7H-pyrrolo[2,3-d]pyrimidin-4-yl)-1H-pyrazol-1-yl]propyl}-3-(methoxymethyl)piperazin-1-yl]carbonyl}-3-fluorobenzonitrile]",< 20 nM,> 100 nM,,,
"N#CCC(CN1CCN(C(=O)c2ccc(C#N)cc2F)CC1CO)n1cc(-c2ncnc3[nH]ccc23)cn1 (single isomer, unassigned) [156—peak 2, 4-{[4-{3-cyano-2-[4-(7H-pyrrolo[2,3-d]pyrimidin-4-yl)-1H-pyrazol-1-yl]propyl}-3-(hydroxymethyl)piperazin-1-yl]carbonyl}-3-fluorobenzonitrile trifluoroacetate Salt]",> 100 nM,> 100 nM,,,
"Cc1c(Nc2c(F)cccc2F)ncnc1N1CCC(C(CC#N)n2cc(-c3ncnc4[nH]ccc34)cn2)CC1 (stereo not shown) [Example 154, 3-(4-(7H-pyrrolo[2,3-d]pyrimidin-4-yl)-1H-pyrazol-1-yl)-3-(1-(6-(2,6-difluorophenylamino)-5-methylpyrimidin-4-yl)piperidin-4-yl)propanenitrile]",< 20 nM,50 to 100 nM,,,
"C[C@H]1CN(C(=O)c2ccc(C#N)cc2F)CCN1CC(CC#N)n1cc(-c2ncnc3[nH]ccc23)cn1 (single isomer, unassigned) [25, S-1]",,,> 100 nM,> 100 nM,
"N#CCC(CN1CCN(C(=O)c2ccc(C#N)cc2F)CC1)n1cc(-c2ncnc3[nH]ccc23)cn1 (single isomer, unassigned) [Example 12, 4-[(4-{3-cyano-2-[4-(7H-pyrrolo[2,3-d]pyrimidin-4-yl)-1H-pyrazol-1-yl]propyl}piperazin-1-yl)carbonyl]-3-fluorobenzonitrile trifluoroacetate Salt]",,,< 10 nM,50 to 100 nM,
"N#CCC(CN1CCN(S(=O)(=O)c2ccc3[nH]ncc3c2)CC1)n1cc(-c2ncnc3[nH]ccc23)cn1 (stereo not shown) [Example 22, 4-[4-(1H-indazol-5-ylsulfonyl)piperazin-1-yl]-3-[4-(7H-pyrrolo[2,3-d]pyrimidin-4-yl)-1H-pyrazol-1-yl]butanenitrile]",,,< 10 nM,< 10 nM,
